This is an account of results in patent US20240300932A1, “N-PHENYLIMINE DERIVATIVE AND PREPARATION METHOD AND USE THEREOF” (Guizhou University, priority 2023, published 2024).

Holding throughout (experiment): Post-emergence herbicidal activity test (stem and leaf spray, pot culture)
What all share (format): in vivo
Common to all, as to conditions: 3 weeks after spraying

The subject of experiment [1] is Trifoliumre pensL. The method, boiled down:
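Rates of 10, 5 and 2.5 g/mu were applied in a single spray-tower treatment to 2–3-leaf plants, thinned to 10 per pot. Formulation: acetone solution, Tween 80, 1.5 L/ha methyl oleate synergist. Weed response assessed after 3 further greenhouse weeks; mean of three experiments.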

For experiment [2], the system named is Portulaca oleracea. The method, boiled down: (§1)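 Read-out: fresh weight control rate 3 weeks post-spray, graded 5 (≥85%) down to 0 (<5%). Foliar spray at 2–3-leaf stage; rates 10, 5, 2.5 g/mu; acetone + Tween 80 formulation with methyl oleate synergist; greenhouse 20–30 °C, natural light.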
Experiment [3] relates to Setaria viridis. In a few lines: as §1
The subject of experiment [4] is Amaranthus retroflexus. The method, boiled down:
as §1

For experiment [5], the system named is Echinochloa crusgalli. In a few lines:
as §1

Experiment [6] concerns Abutilon theophrasti. The method, boiled down:
as §1

Turning to `O=C1C2=C(CCCC2)C(=O)N1c1cc(OCc2nnc(-c3ccc(F)cc3)o2)c(Cl)cc1F` [Compound B14], the “Post-emergence herbicidal activity, Trifoliumre pensL. (grade)” value in experiment [1] (dosage 2.5 g/mu), in experiment [1] (dosage 5 g/mu) and in experiment [1] (dosage 10 g/mu) was 5 (Grade 5: the growth control rate is greater than or equal to 85%) each time. Further, the “Post-emergence herbicidal activity, P. oleracea (grade)” value was 4 (Grade 4: the growth control rate is greater than or equal to 60% and less than 85%) in experiment [2] (dosage 2.5 g/mu); 5 (Grade 5: the growth control rate is greater than or equal to 85%) in experiment [2] (dosage 5 g/mu); 5 (Grade 5: the growth control rate is greater than or equal to 85%) in experiment [2] (dosage 10 g/mu). The “Post-emergence herbicidal activity, S. viridis (grade)” value is 2 (Grade 2: the growth control rate is greater than or equal to 20% and less than 40%) in experiment [3] (dosage 2.5 g/mu); 3 (Grade 3: the growth control rate is greater than or equal to 40% and less than 60%) in experiment [3] (dosage 5 g/mu); 4 (Grade 4: the growth control rate is greater than or equal to 60% and less than 85%) in experiment [3] (dosage 10 g/mu). In addition, the “Post-emergence herbicidal activity, A. retroflexus (grade)” value in experiment [4] (dosage 2.5 g/mu), in experiment [4] (dosage 5 g/mu) and in experiment [4] (dosage 10 g/mu) was 5 (Grade 5: the growth control rate is greater than or equal to 85%) in each case. The “Post-emergence herbicidal activity, E. crusgalli (grade)” value in experiment [5] (dosage 2.5 g/mu) was 1 (Grade 1: the growth control rate is greater than or equal to 5% and less than 20%); in experiment [5] (dosage 5 g/mu), 2 (Grade 2: the growth control rate is greater than or equal to 20% and less than 40%); in experiment [5] (dosage 10 g/mu), 3 (Grade 3: the growth control rate is greater than or equal to 40% and less than 60%). Further, the “Post-emergence herbicidal activity, A. theophrasti (grade)” value in experiment [6] (dosage 2.5 g/mu) was 4 (Grade 4: the growth control rate is greater than or equal to 60% and less than 85%); in experiment [6] (dosage 5 g/mu), 5 (Grade 5: the growth control rate is greater than or equal to 85%); in experiment [6] (dosage 10 g/mu), 5 (Grade 5: the growth control rate is greater than or equal to 85%).
For the molecule `O=C1C2=C(CCCC2)C(=O)N1c1cc(OCc2nnc(-c3ccccc3Cl)o2)c(Cl)cc1F` [Compound B5], the “Post-emergence herbicidal activity, Trifoliumre pensL. (grade)” value in experiment [1] (dosage 2.5 g/mu), in experiment [1] (dosage 5 g/mu) and in experiment [1] (dosage 10 g/mu) was 5 (Grade 5: the growth control rate is greater than or equal to 85%) throughout. For the same molecule, the “Post-emergence herbicidal activity, P. oleracea (grade)” value in experiment [2] (dosage 2.5 g/mu), in experiment [2] (dosage 5 g/mu) and in experiment [2] (dosage 10 g/mu) was 5 (Grade 5: the growth control rate is greater than or equal to 85%) in each case. In addition, the “Post-emergence herbicidal activity, S. viridis (grade)” value was 2 (Grade 2: the growth control rate is greater than or equal to 20% and less than 40%) in experiment [3] (dosage 2.5 g/mu); 3 (Grade 3: the growth control rate is greater than or equal to 40% and less than 60%) in experiment [3] (dosage 5 g/mu); 4 (Grade 4: the growth control rate is greater than or equal to 60% and less than 85%) in experiment [3] (dosage 10 g/mu). Moreover, the “Post-emergence herbicidal activity, A. retroflexus (grade)” value in experiment [4] (dosage 2.5 g/mu), in experiment [4] (dosage 5 g/mu) and in experiment [4] (dosage 10 g/mu) was 5 (Grade 5: the growth control rate is greater than or equal to 85%) each time. The “Post-emergence herbicidal activity, E. crusgalli (grade)” value in experiment [5] (dosage 2.5 g/mu) was 1 (Grade 1: the growth control rate is greater than or equal to 5% and less than 20%); in experiment [5] (dosage 5 g/mu), 2 (Grade 2: the growth control rate is greater than or equal to 20% and less than 40%); in experiment [5] (dosage 10 g/mu) it was 3 (Grade 3: the growth control rate is greater than or equal to 40% and less than 60%). Further, the “Post-emergence herbicidal activity, A. theophrasti (grade)” value in experiment [6] (dosage 2.5 g/mu), in experiment [6] (dosage 5 g/mu) and in experiment [6] (dosage 10 g/mu) was 5 (Grade 5: the growth control rate is greater than or equal to 85%) each time.
For the molecule `O=C1C2=C(CCCC2)C(=O)N1c1cc(OCc2nc(-c3ccccc3)no2)c(Cl)cc1F` [Compound A25], the “Post-emergence herbicidal activity, Trifoliumre pensL. (grade)” value in experiment [1] (dosage 2.5 g/mu) is 4 (Grade 4: the growth control rate is greater than or equal to 60% and less than 85%); in experiment [1] (dosage 5 g/mu) it was 5 (Grade 5: the growth control rate is greater than or equal to 85%); in experiment [1] (dosage 10 g/mu), 5 (Grade 5: the growth control rate is greater than or equal to 85%). Besides, the “Post-emergence herbicidal activity, P. oleracea (grade)” value in experiment [2] (dosage 2.5 g/mu) was 4 (Grade 4: the growth control rate is greater than or equal to 60% and less than 85%); in experiment [2] (dosage 5 g/mu), 5 (Grade 5: the growth control rate is greater than or equal to 85%); in experiment [2] (dosage 10 g/mu) it was 5 (Grade 5: the growth control rate is greater than or equal to 85%). Also, the “Post-emergence herbicidal activity, S. viridis (grade)” value was 2 (Grade 2: the growth control rate is greater than or equal to 20% and less than 40%) in experiment [3] (dosage 2.5 g/mu); 3 (Grade 3: the growth control rate is greater than or equal to 40% and less than 60%) in experiment [3] (dosage 5 g/mu); 4 (Grade 4: the growth control rate is greater than or equal to 60% and less than 85%) in experiment [3] (dosage 10 g/mu). Further, the “Post-emergence herbicidal activity, A. retroflexus (grade)” value in experiment [4] (dosage 2.5 g/mu), in experiment [4] (dosage 5 g/mu) and in experiment [4] (dosage 10 g/mu) was 5 (Grade 5: the growth control rate is greater than or equal to 85%) each time. For the same molecule, the “Post-emergence herbicidal activity, E. crusgalli (grade)” value in experiment [5] (dosage 2.5 g/mu) was 1 (Grade 1: the growth control rate is greater than or equal to 5% and less than 20%); in experiment [5] (dosage 5 g/mu), 2 (Grade 2: the growth control rate is greater than or equal to 20% and less than 40%); in experiment [5] (dosage 10 g/mu) it was 3 (Grade 3: the growth control rate is greater than or equal to 40% and less than 60%). The “Post-emergence herbicidal activity, A. theophrasti (grade)” value in experiment [6] (dosage 2.5 g/mu), in experiment [6] (dosage 5 g/mu) and in experiment [6] (dosage 10 g/mu) was 5 (Grade 5: the growth control rate is greater than or equal to 85%) each time.
Regarding `O=C1C2=C(CCCC2)C(=O)N1c1cc(OCc2nc(-c3cccs3)no2)c(Cl)cc1F` [Compound A19], the “Post-emergence herbicidal activity, Trifoliumre pensL. (grade)” value is 4 (Grade 4: the growth control rate is greater than or equal to 60% and less than 85%) in experiment [1] (dosage 2.5 g/mu); 5 (Grade 5: the growth control rate is greater than or equal to 85%) in experiment [1] (dosage 5 g/mu); 5 (Grade 5: the growth control rate is greater than or equal to 85%) in experiment [1] (dosage 10 g/mu). In addition, the “Post-emergence herbicidal activity, P. oleracea (grade)” value was 4 (Grade 4: the growth control rate is greater than or equal to 60% and less than 85%) in experiment [2] (dosage 2.5 g/mu); 5 (Grade 5: the growth control rate is greater than or equal to 85%) in experiment [2] (dosage 5 g/mu); 5 (Grade 5: the growth control rate is greater than or equal to 85%) in experiment [2] (dosage 10 g/mu). The “Post-emergence herbicidal activity, S. viridis (grade)” value is 2 (Grade 2: the growth control rate is greater than or equal to 20% and less than 40%) in experiment [3] (dosage 2.5 g/mu); 3 (Grade 3: the growth control rate is greater than or equal to 40% and less than 60%) in experiment [3] (dosage 5 g/mu); 4 (Grade 4: the growth control rate is greater than or equal to 60% and less than 85%) in experiment [3] (dosage 10 g/mu). The “Post-emergence herbicidal activity, A. retroflexus (grade)” value in experiment [4] (dosage 2.5 g/mu), in experiment [4] (dosage 5 g/mu) and in experiment [4] (dosage 10 g/mu) was 5 (Grade 5: the growth control rate is greater than or equal to 85%) in each case. Further, the “Post-emergence herbicidal activity, E. crusgalli (grade)” value was 1 (Grade 1: the growth control rate is greater than or equal to 5% and less than 20%) in experiment [5] (dosage 2.5 g/mu); 2 (Grade 2: the growth control rate is greater than or equal to 20% and less than 40%) in experiment [5] (dosage 5 g/mu); 3 (Grade 3: the growth control rate is greater than or equal to 40% and less than 60%) in experiment [5] (dosage 10 g/mu). Also, the “Post-emergence herbicidal activity, A. theophrasti (grade)” value in experiment [6] (dosage 2.5 g/mu), in experiment [6] (dosage 5 g/mu) and in experiment [6] (dosage 10 g/mu) was 5 (Grade 5: the growth control rate is greater than or equal to 85%) each time.
